Results as given in the supplement of paper PMC9663587.

Columns and labels:
[1] = compound: CN(C)C(=O)c1cc2cnc(Nc3ccc(N4CCNCC4)cn3)nc2n1C1CCCC1 [LEE011/Ribociclib]; assay: increase in dead-cell fraction, 72 h; higher = more death;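 note: breast cancer cell lines in 384-well plates, stained with Hoechst plus LIVE/DEAD far red dye and imaged, cells above an LDR intensity threshold counted dead, Hoechst-negative corpses included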
[2] = compound: CCOc1cc2ncc(C#N)c(Nc3ccc(OCc4ccccn4)c(Cl)c3)c2cc1NC(=O)/C=C/CN(C)C [Neratinib/HKI272]; assay: as above
[3] = compound: CC(=O)c1c(C)c2cnc(Nc3ccc(N4CCNCC4)cn3)nc2n(C2CCCC2)c1=O; assay: as above
[4] = compound: CCN1CCN(Cc2ccc(Nc3ncc(F)c(-c4cc(F)c5nc(C)n(C(C)C)c5c4)n3)nc2)CC1; assay: as above
[5] = compound: CN(C)C/C=C/C(=O)Nc1ccc(C(=O)Nc2cccc(Nc3ncc(Cl)c(-c4c[nH]c5ccccc45)n3)c2)cc1 [THZ1]; assay: as above
[6] = compound: CCc1cnn2c(NCc3ccc[n+]([O-])c3)cc(N3CCCC[C@H]3CCO)nc12; assay: as above
[7] = compound: CC(=O)c1c(C)c2cnc(Nc3ccc(N4CCN(CCOCCOCCOCCNC(=O)COc5cccc6c5C(=O)N(C5CCC(=O)NC5=O)C6=O)CC4)cn3)nc2n(C2CCCC2)c1=O [BSJ-03-123]; assay: as above
[8] = compound: CN1CC[C@H](c2c(O)cc(O)c3c(=O)cc(-c4ccccc4Cl)oc23)[C@H](O)C1 [Flavopiridol]; assay: as above
[9] = compound: O=C(CCCCCCC(=O)Nc1ccccc1)NO [Vorinostat]
[10] = compound: COc1ccc2c(c1)[C@]1(C[C@H]1c1ccc3c(/C=C/c4ccc(CN5C[C@@H](C)O[C@@H](C)C5)cc4)n[nH]c3c1)C(=O)N2
[11] = compound: CCN1CCN(Cc2ccc(Nc3ncc(F)c(-c4cc(F)c5nc(C)n(C(C)C)c5c4)n3)nc2)CC1
[12] = compound: C[C@@H]1COCCN1c1cc(C2([S@](C)(=N)=O)CC2)nc(-c2cc[nH]c3nccc2-3)n1 [AZD6738]
[13] = compound: CCC1=CN=CN=C1N2CCN(CC2)CC3=NC4=C(N3)C=C(C=C4)C(F)(F)F
[14] = compound: CN(C)C/C=C/C(=O)Nc1ccc(O[C@@H]2CCC[C@@H](Nc3ncc(Cl)c(-c4c[nH]c5ccccc45)n3)C2)cc1 [BSJ-01-175]
[15] = compound: CNC(=O)c1cccc(-c2ccc3c(N4CCOC[C@@H]4C)nc(N4CCOC[C@@H]4C)nc3n2)c1 [AZD2014]
[16] = compound: CC(C)NC[C@@H](C(=O)N1CCN(c2ncnc3c2[C@H](C)C[C@H]3O)CC1)c1ccc(Cl)cc1 [Ipatasertib/GDC0068]
[17] = compound: NC(=O)Nc1cc(-c2cccc(F)c2)sc1C(=O)N[C@H]1CCCNC1 [AZD7762]
[18] = compound: O=C1NC(=O)[C@@H](c2cn3c4c(cccc24)CCC3)[C@@H]1c1c[nH]c2ccccc12 [Tivantinib/ARQ197]
[19] = compound: CC(=O)Nc1cccc(-n2c(=O)n(C3CC3)c(=O)c3c(Nc4ccc(I)cc4F)n(C)c(=O)c(C)c32)c1
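Throughout, for GR50, 72 h: breast cancer and non-malignant breast epithelial cell lines, Deep Dye Drop or Dye Drop imaging, nine half-log doses, GR normalized to time-zero plates and DMSO-only controls.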

ZR751
increase in dead-cell fraction ([1]; 0.001 µM): 0.001 | increase in dead-cell fraction ([1]; 0.003162 µM): 0.0005 | increase in dead-cell fraction ([1]; 0.01 µM): 0.0005 | increase in dead-cell fraction ([1]; 0.03162 µM): -0.0023 | increase in dead-cell fraction ([1]; 0.1 µM): 0.0065 | increase in dead-cell fraction ([1]; 0.3162 µM): 0.0036 | increase in dead-cell fraction ([1]; 1 µM): 0.0073 | increase in dead-cell fraction ([1]; 3.162 µM): 0.0082 | increase in dead-cell fraction ([1]; 10 µM): 0.0077 | increase in dead-cell fraction ([2]; 0.0003162 µM): -0.0059 | increase in dead-cell fraction ([2]; 0.001 µM): -0.0002 | increase in dead-cell fraction ([2]; 0.003162 µM): -0.0001 | increase in dead-cell fraction ([2]; 0.01 µM): -0.0032 | increase in dead-cell fraction ([2]; 0.03162 µM): -0.0037 | increase in dead-cell fraction ([2]; 0.1 µM): -0.0037 | increase in dead-cell fraction ([2]; 0.3162 µM): 0 | increase in dead-cell fraction ([2]; 1 µM): 0.0004 | increase in dead-cell fraction ([2]; 3.162 µM): 0.001 | increase in dead-cell fraction ([3]; 0.0003162 µM): -0.0023 | increase in dead-cell fraction ([3]; 0.001 µM): -0.0015 | increase in dead-cell fraction ([3]; 0.003162 µM): -0.0035 | increase in dead-cell fraction ([3]; 0.01 µM): 0.0001 | increase in dead-cell fraction ([3]; 0.03162 µM): 0.002 | increase in dead-cell fraction ([3]; 0.1 µM): -0.0025 | increase in dead-cell fraction ([3]; 0.3162 µM): 0.0083 | increase in dead-cell fraction ([3]; 1 µM): 0.008 | increase in dead-cell fraction ([3]; 3.162 µM): 0.0189 | increase in dead-cell fraction ([4]; 0.001 µM): 0.0013 | increase in dead-cell fraction ([4]; 0.003162 µM): 0.0092 | increase in dead-cell fraction ([4]; 0.01 µM): 0.0042 | increase in dead-cell fraction ([4]; 0.03162 µM): 0.0075 | increase in dead-cell fraction ([4]; 0.1 µM): 0.0148 | increase in dead-cell fraction ([4]; 0.3162 µM): 0.021 | increase in dead-cell fraction ([4]; 1 µM): 0.0189 | increase in dead-cell fraction ([4]; 3.162 µM): 0.0151 | increase in dead-cell fraction ([4]; 10 µM): 0.0172 | increase in dead-cell fraction ([5]; 0.0001 µM): -0.0022 | increase in dead-cell fraction ([5]; 0.0003162 µM): -0.0022 | increase in dead-cell fraction ([5]; 0.001 µM): 0.0059 | increase in dead-cell fraction ([5]; 0.003162 µM): -0.0001 | increase in dead-cell fraction ([5]; 0.01 µM): 0.002 | increase in dead-cell fraction ([5]; 0.03162 µM): 0.0035 | increase in dead-cell fraction ([5]; 0.1 µM): 0.0005 | increase in dead-cell fraction ([5]; 0.3162 µM): 0.0111 | increase in dead-cell fraction ([5]; 1 µM): 0.0673 | increase in dead-cell fraction ([6]; 0.0001 µM): -0.0029 | increase in dead-cell fraction ([6]; 0.0003162 µM): -0.0028 | increase in dead-cell fraction ([6]; 0.001 µM): -0.0042 | increase in dead-cell fraction ([6]; 0.003162 µM): 0.0003 | increase in dead-cell fraction ([6]; 0.01 µM): -0.0059 | increase in dead-cell fraction ([6]; 0.03162 µM): 0.008 | increase in dead-cell fraction ([6]; 0.1 µM): 0.22 | increase in dead-cell fraction ([6]; 0.3162 µM): 0.21 | increase in dead-cell fraction ([6]; 1 µM): 0.202 | increase in dead-cell fraction ([7]; 0.001 µM): -0.0037 | increase in dead-cell fraction ([7]; 0.003162 µM): -0.0033 | increase in dead-cell fraction ([7]; 0.01 µM): -0.0001 | increase in dead-cell fraction ([7]; 0.03162 µM): -0.0011 | increase in dead-cell fraction ([7]; 0.1 µM): 0.0026 | increase in dead-cell fraction ([7]; 0.3162 µM): -0.0001 | increase in dead-cell fraction ([7]; 1 µM): 0.0048 | increase in dead-cell fraction ([7]; 3.162 µM): 0.004 | increase in dead-cell fraction ([7]; 10 µM): 0.0165 | increase in dead-cell fraction ([8]; 0.0001 µM): -0.0019 | increase in dead-cell fraction ([8]; 0.0003162 µM): -0.0035 | increase in dead-cell fraction ([8]; 0.001 µM): 0.0015 | increase in dead-cell fraction ([8]; 0.003162 µM): 0.0014 | increase in dead-cell fraction ([8]; 0.01 µM): -0.0008 | increase in dead-cell fraction ([8]; 0.03162 µM): -0.0022 | increase in dead-cell fraction ([8]; 0.1 µM): 0.0001 | increase in dead-cell fraction ([8]; 0.3162 µM): 0.0129 | increase in dead-cell fraction ([8]; 1 µM): 0.144 | GR50, 72 h [9]: 3.55 µM | GR50, 72 h [10]: 0.0085 µM | GR50, 72 h [11]: 0.0666 µM | GR50, 72 h [12]: > 10 µM | GR50, 72 h [13]: > 10 µM | GR50, 72 h [14]: 3.46 µM | GR50, 72 h [15]: < 0.001 µM | GR50, 72 h [16]: > 10 µM | GR50, 72 h [17]: 2.29 µM | GR50, 72 h [18]: 0.657 µM | GR50, 72 h [19]: 0.0293 µM
